Experimental data: ChEMBL document CHEMBL5376009 (RSC Med Chem, 2024)

Legend:
Type in all cases: functional, organism-based
Influenza A virus [1] = test: Antiviral activity against influenza A virus A/WSN/1933 (H1N1) infected in MDCK cells harbouring TamiFlu sensitive neuraminidase 274H mutant assessed as reduction in cytopathic effect by DAPI staining based analysis
Influenza A virus [2] = test: Antiviral activity against influenza A virus A/WSN/1933 (H1N1) infected in MDCK cells harbouring TamiFlu sensitive neuraminidase 274Y mutant assessed as reduction in cytopathic effect by DAPI staining based analysis
Influenza A virus [3] = test: Antiviral activity against influenza A virus A/WSN/1933 (H1N1) harboring Tamiflu- sensitive neuraminidase (274H) infected in MDCK cells assessed as reduction in cytopathic effect by fluorescence based analysis
Influenza A virus [4] = test: Antiviral activity against influenza A virus A/WSN/1933 (H1N1) harboring Tamiflu- sensitive neuraminidase (274Y) infected in MDCK cells assessed as reduction in cytopathic effect by fluorescence based analysis
Influenza A virus [5] = test: Antiviral activity against Oseltamivir-resistant Influenza A virus (H1N1) pdm09

For `Cc1onc(-c2ccccc2Cl)c1C(=O)N1CCN(c2ccc([N+](=O)[O-])cc2Cl)CC1`, which EC50 (Influenza A virus [1]) is on record?
Its EC50 is 140 nM.

And the EC50 (Influenza A virus [2])?
Its EC50 is 140 nM.

And the IC50 (Influenza A virus [3])?
The IC50 was 70 nM.

And the EC50 (Influenza A virus [4])?
The EC50 was 140 nM.

Which EC50 (Influenza A virus [5]) does the source give for `COc1cccc(OC)c1C(=O)/C=C/c1nc(C)c(C)nc1C` here?
Its EC50 is 1040 nM.
